According to PubChem BioAssay (NCI):
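Cells were grown in 96-well plates and exposed to each compound for 48 hours at five concentrations; endpoints were interpolated linearly between bracketing concentrations, or set to the highest concentration if not reached. The concentration for 50% growth inhibition is given as GI50. At the TGI there is no net growth.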

Key:
Assay in all cases: inhibition of tumour cell growth, NCI panel, 48 h
[1] = test system: MDA-MB-435
[2] = test system: HL-60(TB) leukemia
[3] = test system: HOP-92 NSCLC
[4] = test system: SW-620 colon
[5] = test system: HCT-116 colon
[6] = test system: SF-295 CNS
[7] = test system: SNB-75 CNS
[8] = test system: DU-145 prostate
[9] = test system: HOP-62 NSCLC
[10] = test system: SR leukemia

Compound	GI50 [1] [µM]	TGI [1] [µM]	GI50 [2] [µM]	TGI [2] [µM]	GI50 [3] [µM]	TGI [3] [µM]	GI50 [4] [µM]	TGI [4] [µM]	GI50 [5] [µM]	TGI [5] [µM]	GI50 [6] [µM]	TGI [6] [µM]	GI50 [7] [µM]	TGI [7] [µM]	GI50 [8] [µM]	TGI [8] [µM]	GI50 [9] [µM]	TGI [9] [µM]	GI50 [10] [µM]	TGI [10] [µM]
CC[C@@H](C)Nc1cc(C(=O)NC2CC3CCC(C2)N3c2ccc(C(=O)C3CC3)cn2)c(C)cc1C(N)=O (stereo partly drawn)	0.0391	> 39.3	0.0329	88.9	0.0422	0.599	0.0323	> 100	0.03	> 100	0.0288	> 100	0.192	> 100	0.0663	> 62.9	0.0598	> 100	0.0189	> 47.6
CC(C)(C)NC/C(=C\c1ccccc1)C(=O)c1ccccc1	2.51	12.8	2.59	14.1	2.4	6.56	1.22	3.5	1.18	2.58	2.86	11.4	4.67	17.9	2.68	9.63	3.44	11.4	1.67	8.68
O=S(=O)(Nc1ccc2ccccc2c1)c1ccc(-c2cnc(C3CC3)o2)cc1	0.214	0.598	0.407	6.99	3.68	30.9	0.468	18.3	0.746	12.7	0.452	5.46	0.616	6.07	2.96	20.4	1.3	17.1	0.377	> 100
O=C(Cn1c(C(=O)c2ccccc2)nc2ccccc21)c1ccc(F)cc1	1.19	–	1.65	5.9	60.2	> 100	3.28	> 100	3.28	> 100	9.44	> 100	10.5	> 100	> 48.7	> 100	9.44	> 100	1.21	–
CCN(CC)CC(C)(C)C(=O)/C=C/c1ccc(/C=C/C(=O)C(C)(C)CN(CC)CC)cc1	–	2.16	–	0.22	–	1.46	–	0.523	–	0.74	–	2.54	–	3.44	–	5.29	–	5.01	–	0.758
CC1CC(C)C2=NOS3=C2C1=NO3 (stereo not drawn)	–	> 100	–	> 100	–	> 100	–	> 100	–	> 100	–	> 100	–	> 100	–	> 100	–	> 100	–	> 100
Cc1nnc(-c2ccc(C)c(-c3ccc(C(=O)NCc4ccc(Cl)cc4)cc3)c2)o1	7.15	> 25	8.55	24.5	3.26	> 25	> 25	> 25	12.6	> 25	7.16	> 25	7.88	> 25	16.2	> 25	14.7	> 25	11.9	> 25
CCCCCCN(C)Cc1ccc(OCCOc2ccc(CN(C)CCCCCC)cc2)cc1	1.04	2.5	1.91	4.51	0.407	2.05	1.48	3.13	1.01	2.21	1.23	2.76	1.2	2.57	2.57	10.5	1.48	3.15	1.04	11.6
CCOc1c(C#N)c2c(N)ncnc2n1C1OC(CO)C(O)C1O (stereo not drawn)	3.15	34.6	1.94	6.94	2.82	> 100	2.18	> 44.6	0.881	3.27	4.63	> 100	5.61	> 76	2.72	11.8	5.01	26.5	1.3	5.5
COc1cc(-c2ccc(NC(=O)NC3CC3)c(OC)c2)ccc1NC(=O)NC1CC1	9.18	> 100	3.75	> 100	7.66	> 67.7	5.39	> 100	3.22	> 100	4.36	> 100	12.1	> 85.8	6.89	> 100	28.8	> 100	0.446	–
C1CCN2CC3CCCN4CCCC(C2C1)C34 (stereo not drawn)	–	> 100	–	> 100	–	> 100	–	> 100	–	> 100	–	> 100	–	> 100	–	> 100	–	> 100	–	> 100
O=C1C(=O)N(c2cccc(C(F)(F)F)c2)C(=O)C(=O)C1c1nc2ccccc2s1	–	> 100	–	59.8	–	> 100	–	> 100	–	> 100	–	> 100	–	> 100	–	> 100	–	> 100	–	83.6
CC(C)(C)c1ccc(O)c(CN(Cc2cc(C(C)(C)C)ccc2O)C2CCCCC2)c1	–	29.8	13.9	33.3	–	23.9	–	35.1	–	30.6	–	34	–	51.3	–	45.4	–	46.5	–	31.4
CN1CCN(Cc2ccc(NC(=O)c3cncc(C#Cc4cnn5ccccc45)c3)cc2C(F)(F)F)CC1	0.729	1.7	0.25	1.15	0.633	2.98	0.382	3.22	0.294	1.47	0.916	3.35	0.893	1.81	1.17	3.95	0.939	2.93	0.322	2.82
COc1cc2ncn(-c3cc(OCc4ccccc4C(F)(F)F)c(C(C)=O)s3)c2cc1OC	17.6	> 25	> 25	> 25	10.8	> 25	> 25	> 25	> 25	> 25	> 25	> 25	19	> 25	> 25	> 25	> 25	> 25	> 25	> 25
CC(=O)NC(CCCCN(Cc1ccccc1)C(=O)N(CCCl)N=O)C(=O)NCc1ccccc1 (stereo not drawn)	–	> 100	–	65.4	–	68.6	–	> 70.7	–	> 62.6	–	43.4	–	63.8	–	> 51.9	–	47	–	47.6
